# According to patent US20110052725A1, “THERAPEUTIC AGENT FOR INFECTIOUS SKIN AND MUCOSAL DISEASE” (priority 2007, published 2011):
# Marks after values point to notes of the source that are not given here.
# How the values were obtained:
# [1] = test system: herpesvirus type 2 (HSV2 UF-strain); test: Antiviral activity against herpesvirus type 2 (TCID50); format: cell-based
# Protocol: (§1) Each of the agents was diluted with sterile distilled water, to thereby prepare a dilution series of 1,250 ppm, 125 ppm, 12.5 ppm, 1.25 ppm and 0.125 ppm.
# (§2) In order to neutralize chlorine dioxide in the agent, a 0.0025M sodium thiosulfate solution was prepared using Eagle MEM, and sterilized by filtration using a 0.22 μm membrane filter.
# (§3) To each of the various concentrations of the agents (240 μl) was added virus (60 μl) and stirred, to thereby sensitize the virus with the agent, for 15, 30, 60, 120 or 180 seconds. Forty μl of virus from each reaction liquid was added to a 0.0025M sodium thiosulfate solution (360 μl), to thereby neutralize chlorine dioxide. As a virus control, one diluted with distilled water, instead of the agent, was used.
# (§4) Each of the agent-treated virus liquid and the control virus liquid diluted with distilled water was neutralized with a 0.0025M sodium thiosulfate solution, and then neutralized virus (100 μl) was diluted with Eagle MEM (900 μl), to obtain a 10-fold dilution series of the treated virus.
# (§5) CRFK cell (50 μl/well) was incubated in a 96-well microplate for 3 days, and the diluted virus was inoculated therein (50 μl/well, 4 well/dilution). Each cell was cultured in a CO2 incubator at 37° C. for 5 days, and CPE was observed. TCID50 was calculated based on the above-mentioned equation 1 (Kerber's formula).
# The antiviral activity against herpesvirus type 2 (HSV-2, Herpes simplex virus type 2) (virus which causes mainly genital herpes, neonatal herpes, herpetic meningitis and herpetic myelitis) was measured. Substantially the same test as in Example 10 was performed, except that the herpesvirus type 2 (standard strain; UF strain) was used instead of the herpesvirus type 1.
# [2] = test system: herpesvirus type 1 (HSV1 kos); test: Antiviral activity against herpesvirus type 1 (TCID50, CRFK cell); format: cell-based
# Protocol: An antiviral activity against herpesvirus type 1 (HSV-1, Herpes simplex virus type 1) (virus which causes mainly herpes labialis, and also causes herpetic stomatitis, herpetic keratitis and herpes simplex encephalitis) was measured. The method will be described below.
# Five-hundred ml of a culture solution of virus (herpesvirus type 1 kos) which had been cultured with CRFK cell (feline kidney cell) was centrifuged at 3,000 rpm for 3 hours, and to the sediment was added 4 ml of distilled water to thereby prepare a viral suspension. The viral suspension was sterilized by filtration using a 0.45 μm membrane filter, and cryopreserved at −80° C. until its usage.
# as §1, §2, §3, §4, §5
smiles,measurement,setting,value
OCl [Sodium hypochlorite],Viral infectivity titer TCID50,"[1]; 0.1 ppm, agent sensitized time 0 second",4.25 TCID50/50 μL unit (10^n)
same,Viral infectivity titer TCID50,"[1]; 0.1 ppm, agent sensitized time 30 second",4.25 TCID50/50 μL unit (10^n)
same,Viral infectivity titer TCID50,"[1]; 0.1 ppm, agent sensitized time 60 second",4.25 TCID50/50 μL unit (10^n)
same,Viral infectivity titer TCID50,"[1]; 0.1 ppm, agent sensitized time 120 second",4.25 TCID50/50 μL unit (10^n)
same,Viral infectivity titer TCID50,"[1]; 1 ppm, agent sensitized time 0 second",4.25 TCID50/50 μL unit (10^n)
same,Viral infectivity titer TCID50,"[1]; 1 ppm, agent sensitized time 30 second",4 TCID50/50 μL unit (10^n)
same,Viral infectivity titer TCID50,"[1]; 1 ppm, agent sensitized time 60 second",3.75 TCID50/50 μL unit (10^n)
same,Viral infectivity titer TCID50,"[1]; 1 ppm, agent sensitized time 120 second",3.75 TCID50/50 μL unit (10^n)
same,Viral infectivity titer TCID50,"[1]; 10 ppm, agent sensitized time 0 second",4.25 TCID50/50 μL unit (10^n)
same,Viral infectivity titer TCID50,"[1]; 10 ppm, agent sensitized time 30 second",0 TCID50/50 μL unit (10^n)
same,Viral infectivity titer TCID50,"[1]; 10 ppm, agent sensitized time 60 second",0 TCID50/50 μL unit (10^n)
same,Viral infectivity titer TCID50,"[1]; 10 ppm, agent sensitized time 120 second",0 TCID50/50 μL unit (10^n)
same,Reduction of viral infectivity titer,[2]; 1 ppm or less,apparent reduction of the infectivity titer was not observed
same,Reduction of viral infectivity titer,"[2]; 10 ppm, 180 seconds",≤ 1 log
same,Reduction of viral infectivity titer,"[2]; discussion, compared with chlorine dioxide 10 ppm for 15 seconds",apparent reduction of the infectivity titer was not observed
